Measured values taken from paper PMC9220178, “Preclinical Characterization of Antioxidant Quinolyl Nitrone QN23 as a New Candidate for the Treatment of Ischemic Stroke” (Antioxidants, 2022).

How the values were obtained:
Format in all cases: in vivo, rat
[1] = tested on: adult male Wistar rats, four-vessel occlusion (4VO) transient forebrain ischemia; experiment: Neuronal apoptosis by TUNEL assay after transient global cerebral ischemia (4VO); details: 40 mg/kg i.v. at 0, 1, 3 or 6 h of reperfusion; R5d
Description: (§1) Transient forebrain ischemia was induced in adult male Wistar rats (10–12 weeks, Charles River, L’Arbresle, France) by the standard four-vessel occlusion (4VO) model previously described. Briefly, animals were anesthetized by intraperitoneal injection of a combination of ketamine, diazepam, and atropine (62.5, 5.0, and 0.25 mg/kg, respectively); positioned in a stereotactic device; and both vertebral arteries were cauterized. The next day, anesthesia was induced with 4% isoflurane and maintained at 2–2.5% isoflurane for carotid artery dissection. After anesthesia withdrawal, the carotid arteries were occluded with an atraumatic vascular clamp to induce brain ischemia. During the entire surgical procedure, temperature was monitored at 2 min intervals and kept at 37 °C. After 15 min of ischemia, the carotid arteries were unclamped for brain reperfusion. The animals were studied after 5 days of reperfusion (R5d), or after 11 weeks of reperfusion (long-term studies), and then they were euthanized under deep anesthesia. Animals from the sham control group were handled in the same way, but without occlusion of the carotid arteries. Ischemic animals were treated with vehicle solution (ethanol/polyethylene glycol 400/saline, 1:300:200 v/v), or with nitrones QN23 or NXY-059 in vehicle solution, as a single injection through the tail vein at the onset of reperfusion. For the therapeutic window experiments, the animals were also treated at reperfusion times 1, 3, and 6 h after ischemia. The treatments were prepared by an independent researcher and administered with concealed allocation. Treatments were administered in a randomized order obtained by a computer-based randomization program. To determine the sample size, a power analysis (http://www.biomath.info/power/ttest.htm, accessed on 12 March 2020) with significance level set at 0.05 and statistical power set at 0.8 (80%) rendered a sample size of <6 subjects per group. A total of 120 ischemic animals (30 animals treated with vehicle, 60 treated with QN23, and 30 treated with NXY-059) and 9 sham control animals were included in these studies. Additionally, 13 animals were excluded from the study: 6 animals were not ischemic and 7 animals died within the 24 h after the surgical procedure (5 vehicles, 1 QN23-treated at 1.0 mg/kg, and 1 QN23-treated at 2.0 mg/kg). The Animal Care Ethics Committee of the Hospital Universitario Ramón y Cajal (Madrid, Spain) authorized all the procedures involving the animal experimentation reported here (authorization number 04/2020). These experiments were performed according to ARRIVE guidelines and the legislation on the protection of animals used for scientific purposes in Spain (RD 53/2013) and the EU (Directive 2010/63/EU). The study was designed and conducted according to the STAIR guidelines regarding physiological monitoring, sample randomization, predefined exclusion criteria, allocation concealment, blinded assessment of outcomes, dose–response definition, and a conflict-of-interest statement.
(§2) After 5 days of reperfusion (R5d), or at 11 weeks of reperfusion in long-term studies, animals were euthanized by transcardiac perfusion via the left ventricle under deep anesthesia. First, blood was washed out with 200 mL of ice-cold saline medium, followed by fixation with 4% (w/v) paraformaldehyde solution in PBS for brain preservation. Then, the brains were carefully removed from the cranial cavity and placed in 4% (w/v) paraformaldehyde solution in PBS overnight at 4 °C. The next day, the brains were sequentially placed in 10%, 20%, and 30% (w/v) sucrose in PBS until sunken, and finally embedded in Tissue-Tek O.C.T. (Sakura Finetek, Torrance, CA, USA) before freezing at −80 °C. Brain coronal sections containing the hippocampus region were obtained by cryostat sectioning at the level of interaural line +5.7 ± 0.2 mm on Real Capillary Gap microscope slides (Agilent Dako, Santa Clara, CA, USA). […]

[2] = tested on: adult male Wistar rats, four-vessel occlusion (4VO) transient forebrain ischemia; experiment: Long-term behavioral tests in the Y maze; details: 40 mg/kg i.v. at reperfusion onset, 11 weeks after ischemia
Description: Long-term assessment of neurological damage after the ischemic episode was performed by the evaluation of the spontaneous exploratory activity (spatial recognition) and spatial memory skills in the Y maze.
For the assessment of the exploratory activity and spatial recognition, control animals and ischemic animals treated with vehicle, QN23, or NXY-059 were placed in the center of the maze and allowed free exploration for 8 min. An independent researcher blind to the treatment allocation registered the total number of arms that the animal entered indistinctly (arm entries), and the times that the animal explored the three different arms of the maze consecutively (alternations or triads).
For the assessment of spatial memory, experiments consisted of two trials. For the first trial (training), control and ischemic animals treated with vehicle or QN23 were placed into one of the arms (start arm) and allowed to explore the Y maze for 10 min with one of the arms closed. One hour after the training trial, the animals were returned to the Y maze and the second trial was conducted. The animals were placed in the same start arm as in the training trial, but now with the remaining two arms of the maze available for exploration for 3 min. A researcher blind to the treatment allocation registered the first choice of arm for entry (novel or old).

[3] = tested on: adult male Wistar rats, four-vessel occlusion (4VO) transient forebrain ischemia; experiment: Neurological deficit score (NDS) after global cerebral ischemia (4VO); details: 40 mg/kg i.v.; R5d; times tested 0, 1, 3, 6 h
Description: Transient forebrain ischemia was induced in adult male Wistar rats (10–12 weeks, Charles River, L’Arbresle, France) by the standard four-vessel occlusion (4VO) model previously described. Briefly, animals were anesthetized by intraperitoneal injection of a combination of ketamine, diazepam, and atropine (62.5, 5.0, and 0.25 mg/kg, respectively); positioned in a stereotactic device; and both vertebral arteries were cauterized. The next day, anesthesia was induced with 4% isoflurane and maintained at 2–2.5% isoflurane for carotid artery dissection. After anesthesia withdrawal, the carotid arteries were occluded with an atraumatic vascular clamp to induce brain ischemia. During the entire surgical procedure, temperature was monitored at 2 min intervals and kept at 37 °C. After 15 min of ischemia, the carotid arteries were unclamped for brain reperfusion. The animals were studied after 5 days of reperfusion (R5d), or after 11 weeks of reperfusion (long-term studies), and then they were euthanized under deep anesthesia. Animals from the sham control group were handled in the same way, but without occlusion of the carotid arteries. Ischemic animals were treated with vehicle solution (ethanol/polyethylene glycol 400/saline, 1:300:200 v/v), or with nitrones QN23 or NXY-059 in vehicle solution, as a single injection through the tail vein at the onset of reperfusion. For the therapeutic window experiments, the animals were also treated at reperfusion times 1, 3, and 6 h after ischemia. The treatments were prepared by an independent researcher and administered with concealed allocation. Treatments were administered in a randomized order obtained by a computer-based randomization program. […]
After 5 days of post-ischemic reperfusion (R5d), neurological deficits were evaluated in the animals by a researcher blind to the treatment allocation. General status and mobility impairments were quantified according to a scale previously validated in an entire cohort of R5d animals (n = 20). […]

[4] = tested on: adult male Wistar rats, four-vessel occlusion (4VO) transient forebrain ischemia; experiment: Neuronal death by Fluoro-Jade B staining after transient global cerebral ischemia (4VO); details: 40 mg/kg i.v. at 0, 1, 3 or 6 h of reperfusion; R5d
Description: as §1, §2

CC(C)(C)[N+]([O-])=Cc1ccc(S(=O)(=O)[O-])cc1S(=O)(=O)[O-].[Na+].[Na+] [NXY-059, reference compound]
Apoptosis reduction compared with vehicle [1]: did not produce a significant effect | Y maze arm entries (exploratory activity) [2]: fewer arm maze entries | Y maze alternations (triads completed), spatial recognition ([2]; vehicle 5.0, control 15.75): 5.5 | Percentage of animals exploring the novel arm as a first choice (spatial memory) ([2]; vehicle 17%, control 75%): 50% | Therapeutic window: administration time after reperfusion onset with significantly reduced NDS [3]: 0 h | Neuronal death compared with vehicle [4]: did not reduce neuronal death
